Patent US12590057B2, “Crystalline complexes” (Theracryf PLC, priority 2020, dated 2026)

How the values were obtained:
Type in all cases: physicochemical
[1] = GVS sorption-desorption isotherms; settings: for water content at starting conditions (GVS): 40% RH and 25° C.; for additional water taken up (GVS): RH increased to 90%; for crystalline form by XRPD after GVS: after sorption/desorption cycle(s); for total water content (GVS): at 90% RH; for water taken up (GVS): between 0% and 60% RH (Form 1: at 60% RH)
Method: Sorption isotherms were obtained using a SMS DVS Intrinsic moisture sorption analyser, controlled by DVS Intrinsic Control software. The sample temperature was maintained at 25° C. by the instrument controls. The humidity was controlled by mixing streams of dry and wet nitrogen, with a total flow rate of 200 ml/min. The relative humidity was measured by a calibrated Rotronic probe (dynamic range of 1.0-100% RH), located near the sample. The weight change, (mass relaxation) of the sample as a function of % RH was constantly monitored by a microbalance (accuracy±0.005 mg). Typically, 5-30 mg of sample was placed in a tared mesh stainless steel basket under ambient conditions. The sample was loaded and unloaded at 40% RH and 25° C. (typical room conditions). A moisture sorption isotherm was performed as outlined below (2 scans per complete cycle). The standard isotherm was performed at 25° C. at 10% RH intervals over a 0-90% RH range. Typically, a double cycle (4 scans) was carried out. Data analysis was carried out within Microsoft Excel using the DVS Analysis Suite. Samples of Example 1 (Form 1) and Example 3 (Form 3) were analysed for their sorption-desorption isotherms by GVS. […] The sample contained approximately 8% w/w water at the starting conditions of 40% RH and 25° C. […] Therefore, the second sorption profile seen in FIG. 18A is that of Form 3. […] The sample contained approximately 3-4% w/w water at the starting conditions of 40% RH and 25° C. […] A significant uptake of moisture occurred in the first sorption cycle between 60 and 70% RH equivalent to approximately 5% w/w.

[2] = KF water content of stability samples; settings: for KF water content: Duma bottles without desiccant
Method: The water content of each sample was measured on a Metrohm 874 Oven Sample Processor at 150° C. with 851 Titrano Coulometer using Hydranal Coulomat AG oven reagent and nitrogen purge. Weighed solid samples were introduced into a sealed sample vial. Approximately 10 mg of sample was used per titration and duplicate determinations were made. […] Data collection and analysis were performed using Tiamo software.
The water content of samples of Form 1 (batch ref. LS19-0004-3-8002), Form 3 prepared by minimally-agitated drying ([…]; batch ref. 491-PAL-18) and Form 3 prepared by continuously-agitated filter drying (Example 5B trial 5; batch ref. 00173-005) was analysed by KF at the start of the stability study (initial) and after 2, 4 and 8 weeks storage in 60 ml Duma® bottles fitted with 45 mm Duma® caps (without desiccant) at 25° C./60% RH—see Table 16;
In a separate study, samples of Form 3 (Example 5.3; batch ref. 491-PAL-18) having an initial water content by KF of 2.3% w/w were tested for water content at various time points after storage double bagged in a HDPE bottle under various conditions as shown in Table 17.

[3] = Chemical stability in biorelevant media
Method: Samples of Form 1 (batch ref […]-0004-S-8002) and Form 3 (Example 5.4.1 (batch ref. 491PAL22; A-19-0132)) in 0.1 M HCl and FaSSIF media (1.2 mg/ml) were stored at ambient and 37° C. for up to 7 days. Chemical stability was assessed by determining the concentration of parent compound by HPLC on days 0, 3 and 7 in triplicate.

[4] = Equilibrium solubility in biorelevant media (shake flask); design: Equilibrium solubility, Mean Conc: unit not given here; settings: for equilibrium solubility in words: 0.1 M HCl and FaSSIF media; for Equilibrium solubility, Mean Conc: 37° C.
Method: The equilibrium solubility of samples of Form 1 (batch ref […]-0004-S-8002) and Form 3 (Example 5.4.1 (batch ref, 491PAL22; A-19-0132)) in 0.1M HCl and FaSSIF media at 37° C. was carried out using the shake flask method. Samples were taken at 4 hours and 24 hours and centrifuged for 5 minutes at 15,000 rpm. The supernatant was removed and diluted with appropriate solvent prior to HPLC analysis of the parent concentrations.

[5] = Typical water content of the crystalline forms
Method: The water content of a sample can be determined by any suitable means as will be apparent to one of skill in the art. In one embodiment, the water content is determined by Karl-Fischer titration. In one embodiment, the water content is determined by thermogravimetric analysis (TGA). In one embodiment, the water content is determined by gravimetric vapour sorption (GVS). After formation of the crystalline complex according to the invention, the water content may be as low as 1-3% w/w. However, after exposure of the complex to ambient conditions (25° C., 40% RH) the material typically equilibrates (e.g. over a period of 3-7 days) to a water content of up to 5-7% w/w. It has been found, however, that Form 3, once equilibrated to 5-7% w/w water, maintains physical form at 60% RH making it unexpectedly stable over the 0% and 60% humidity range.

[6] = 0.1M HCl, ambient, Day 0, 1.2 mg/ml nominal, Form 3 = Example 5.4.1
[7] = 0.1M HCl, 4 Hours, Form 3 = Example 5.4.1
[8] = FaSSIF, 4 Hours, atypical HPLC data and variable results
[9] = FaSSIF, 24 Hours, atypical HPLC data and variable results

Compound | water content at starting conditions (GVS) [1] | additional water taken up (GVS) ([1]; 25° C.) | crystalline form by XRPD after GVS [1] | total water content (GVS) ([1]; 25° C.) [% w/w] | water taken up (GVS) [1] | Mean Conc of parent ([3]; 0.1M HCl, 37° C., Day 0) [µg/mL] | Mean Conc of parent ([3]; 0.1M HCl, 37° C., Day 3) [µg/mL] | Mean Conc of parent ([3]; 0.1M HCl, 37° C., Day 7) [µg/mL] | Mean Conc of parent [3, 6] [µg/mL] | Mean Conc of parent ([3]; 0.1M HCl, ambient, Day 3) [µg/mL] | Mean Conc of parent ([3]; 0.1M HCl, ambient, Day 7) [µg/mL] | Mean Conc of parent ([3]; FaSSIF, 37° C., Day 0) [µg/mL] | Mean Conc of parent ([3]; FaSSIF, 37° C., Day 3) [µg/mL] | Mean Conc of parent ([3]; FaSSIF, 37° C., Day 7) [µg/mL] | Mean Conc of parent ([3]; FaSSIF, ambient, Day 0) [µg/mL] | Mean Conc of parent ([3]; FaSSIF, ambient, Day 3) [µg/mL] | Mean Conc of parent ([3]; FaSSIF, ambient, Day 7) [µg/mL] | equilibrium solubility in words [4] | Equilibrium solubility, Mean Conc [4, 7] | Equilibrium solubility, Mean Conc ([4]; 0.1M HCl, 24 Hours) | other results
C[S+]([O-])CCCCN=C=S.OCC1OC2OC3C(CO)OC(OC4C(CO)OC(OC5C(CO)OC(OC6C(CO)OC(OC7C(CO)OC(OC1C(O)C2O)C(O)C7O)C(O)C6O)C(O)C5O)C(O)C4O)C(O)C3O (centres unmarked) [Form 1] | approximately 8 % w/w | 4-5 % w/w | had converted to Form 3 | 12.9 | 8-9 % w/w | 1180 | 1060 | 1050 | 1220 | 1090 | 1050 | 1180 | 920 | 940 | 1160 | 960 | 900 | high and comparable | 632 | 2605 | hysteresis (GVS) ([1]; 25° C.): Significant hysteresis existed between 70% and 30% RH; KF water content ([2]; 2 weeks, 25° C./60% RH): 8.4 % w/w; KF water content ([2]; 4 weeks, 25° C./60% RH): 6.5 % w/w; KF water content ([2]; 8 weeks, 25° C./60% RH): 11.1 % w/w; KF water content ([2]; Initial, 25° C./60% RH study): 8.6 % w/w; Equilibrium solubility, Mean Conc [4, 8]: 271; Equilibrium solubility, Mean Conc [4, 9]: 247; Typical water content [5]: 8-15 % w/w
C[S+]([O-])CCCCN=C=S.OC[C@H]1O[C@@H]2O[C@H]3[C@H](O)[C@@H](O)[C@@H](O[C@H]4[C@H](O)[C@@H](O)[C@@H](O[C@H]5[C@H](O)[C@@H](O)[C@@H](O[C@H]6[C@H](O)[C@@H](O)[C@@H](O[C@H]7[C@H](O)[C@@H](O)[C@@H](O[C@H]1[C@H](O)[C@H]2O)O[C@@H]7CO)O[C@@H]6CO)O[C@@H]5CO)O[C@@H]4CO)O[C@@H]3CO [Form 3] | 3-4 % w/w | 7-8 % w/w | remains as Form 3 | 11.1 | about 4 % w/w | 1050 | 940 | 920 | 1080 | 940 | 1010 | 1010 | 800 | 780 | 1000 | 810 | 930 | high and comparable | 733 | 3057 | uptake of moisture in the first sorption cycle (GVS) ([1]; between 60 and 70% RH): approximately 5 % w/w; water content on extended exposure to high humidity ([2]; up to 6 months): does not increase significantly above about 5-6% w/w; Equilibrium solubility, Mean Conc [4, 8]: 264; Equilibrium solubility, Mean Conc [4, 9]: 221; water content after equilibration at ambient conditions ([5]; exposure to ambient conditions (25° C., 40% RH), e.g. 3-7 days): 5-7 % w/w
